Source: US12162890B2 (Novartis AG, priority 2015, dated 2024)

These molecules were tested against HEK293 cells with stable expression of the GRIN1 gene and tetracycline-inducible expression of the GRIN2B gene (NMDA receptor, NR2B) (Homo sapiens, UniProt Q13224) (assay: Fluo-8 Ca2+ flux assay: reversal of Ro 25-6981-mediated suppression of the Ca2+ response to co-agonist (glutamate/glycine)). Conditions: reversal of the Ro 25-6981 suppression of the Ca2+ response to co-agonist (glutamate/glycine).
Sequence of HEK293 cells with stable expression of the GRIN1 gene and tetracycline-inducible expression of the GRIN2B gene (NMDA receptor, NR2B) (Q13224 27-1484, other chains not shown): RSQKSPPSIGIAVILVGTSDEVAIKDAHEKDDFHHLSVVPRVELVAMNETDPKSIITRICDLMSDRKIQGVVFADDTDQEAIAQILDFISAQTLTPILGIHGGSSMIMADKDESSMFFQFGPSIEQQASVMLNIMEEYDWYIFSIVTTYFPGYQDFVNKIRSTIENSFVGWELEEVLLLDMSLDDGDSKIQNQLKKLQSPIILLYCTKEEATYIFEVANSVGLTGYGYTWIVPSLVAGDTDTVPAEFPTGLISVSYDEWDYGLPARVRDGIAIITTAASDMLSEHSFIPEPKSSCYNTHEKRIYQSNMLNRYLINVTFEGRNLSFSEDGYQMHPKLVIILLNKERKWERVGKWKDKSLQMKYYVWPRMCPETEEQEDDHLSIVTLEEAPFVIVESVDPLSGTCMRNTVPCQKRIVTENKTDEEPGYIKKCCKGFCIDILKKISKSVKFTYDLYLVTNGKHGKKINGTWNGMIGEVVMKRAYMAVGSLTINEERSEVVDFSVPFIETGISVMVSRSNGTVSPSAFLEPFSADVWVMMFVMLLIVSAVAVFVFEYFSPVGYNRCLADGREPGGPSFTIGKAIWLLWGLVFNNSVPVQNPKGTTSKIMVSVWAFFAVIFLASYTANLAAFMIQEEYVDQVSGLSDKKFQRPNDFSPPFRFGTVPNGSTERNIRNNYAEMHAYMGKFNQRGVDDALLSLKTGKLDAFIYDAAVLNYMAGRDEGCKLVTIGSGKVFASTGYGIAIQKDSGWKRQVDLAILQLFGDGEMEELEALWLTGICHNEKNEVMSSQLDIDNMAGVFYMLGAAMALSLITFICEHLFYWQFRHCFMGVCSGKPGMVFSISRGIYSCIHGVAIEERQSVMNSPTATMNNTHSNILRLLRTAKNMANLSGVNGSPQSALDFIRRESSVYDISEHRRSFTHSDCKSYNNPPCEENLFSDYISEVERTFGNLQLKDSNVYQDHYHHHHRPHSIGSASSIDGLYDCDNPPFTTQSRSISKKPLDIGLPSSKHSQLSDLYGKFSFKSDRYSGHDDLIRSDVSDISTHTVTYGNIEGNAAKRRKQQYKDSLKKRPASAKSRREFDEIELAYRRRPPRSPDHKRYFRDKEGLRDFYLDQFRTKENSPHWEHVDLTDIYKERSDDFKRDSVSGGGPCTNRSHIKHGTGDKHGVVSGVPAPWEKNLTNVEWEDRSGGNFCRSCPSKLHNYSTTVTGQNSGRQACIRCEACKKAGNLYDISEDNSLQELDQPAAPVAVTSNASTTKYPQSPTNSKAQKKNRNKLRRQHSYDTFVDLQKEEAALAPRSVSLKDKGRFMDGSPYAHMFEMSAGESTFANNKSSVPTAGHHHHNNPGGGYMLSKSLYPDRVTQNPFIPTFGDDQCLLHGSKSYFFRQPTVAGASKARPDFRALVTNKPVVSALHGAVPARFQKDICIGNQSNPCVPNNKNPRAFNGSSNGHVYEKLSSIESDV
Type: cell-based
Further: test concentration or dose not given here.

Row | SMILES | Response Recovered (%)
1 | Cc1nnc(-n2cc(-c3ccc(F)c(C(F)(F)F)c3)c3c(=O)n(CC(=O)N4CCC(F)C4)ccc32)o1 (stereo not drawn) [Example 263, 3-(4-fluoro-3-(trifluoromethyl)phenyl)-5-(2-(3-fluoropyrrolidin-1-yl)-2-oxoethyl)-1-(5-methyl-1,3,4-oxadiazol-2-yl)-1H-pyrrolo[3,2-c]pyridin-4(5H)-one] | 72
2 | O=C(Cn1ccc2scc(-c3ccc(F)c(Cl)c3)c2c1=O)N1CC(F)(c2ccccc2)C1 [Example 57, 3-(3-chloro-4-fluorophenyl)-5-(2-(3-fluoro-3-phenylazetidin-1-yl)-2-oxoethyl)thieno[3,2-c]pyridin-4(5H)-one] | 15
3 | O=C(Cn1ccc2[nH]cc(-c3ccc(Cl)c(Cl)c3)c2c1=O)N1CCC(F)C1 (stereo not drawn) [Example 214, 3-(3,4-dichlorophenyl)-5-(2-(3-fluoropyrrolidin-1-yl)-2-oxoethyl)-1H-pyrrolo[3,2-c]pyridin-4(5H)-one] | 84
4 | O=C(Cn1ccc2scc(-c3ccc(Cl)c(F)c3)c2c1=O)N1CCC(F)C1 (stereo not drawn) [Example 7, 3-(4-chloro-3-fluorophenyl)-5-(2-(3-fluoropyrrolidin-1-yl)-2-oxoethyl)thieno[3,2-c]pyridin-4(5H)-one] | 49
5 | Cc1cc(-c2csc3ccn(CC(=O)N4CC(C)(F)C4)c(=O)c23)cnc1F [Example 87, 5-(2-(3-fluoro-3-methylazetidin-1-yl)-2-oxoethyl)-3-(6-fluoro-5-methylpyridin-3-yl)thieno[3,2-c]pyridin-4(5H)-one] | −4.2
6 | N#Cc1cn(CC(=O)N2CCCC2)c(=O)c2c(-c3ccc(Cl)c(C(F)(F)F)c3)csc12 [Example 99, 3-(4-chloro-3-(trifluoromethyl)phenyl)-4-oxo-5-(2-oxo-2-(pyrrolidin-1-yl)ethyl)-4,5-dihydrothieno[3,2-c]pyridine-7-carbonitrile] | 37
7 | Cn1cc(-c2ccc(F)c(Cl)c2)c2c(=O)n(CC(=O)N3CCC(F)C3)ccc21 (stereo not drawn) [Example 247, 3-(3-chloro-4-fluorophenyl)-5-(2-(3-fluoropyrrolidin-1-yl)-2-oxoethyl)-1-methyl-1H-pyrrolo[3,2-c]pyridin-4(5H)-one] | 51
8 | O=C(Cn1nnc2scc(-c3ccc(Cl)c(C(F)(F)F)c3)c2c1=O)N1CC(F)(F)C1 [Example 333, 5-(4-chloro-3-(trifluoromethyl)phenyl)-3-(2-(3,3-difluoroazetidin-1-yl)-2-oxoethyl)thieno[2,3-d][1,2,3]triazin-4(3H)-one] | 13
9 | CCC1(F)CN(C(=O)Cn2ccc3scc(-c4cnc(C)c(Cl)c4)c3c2=O)C1 [Example 91, 3-(5-chloro-6-methylpyridin-3-yl)-5-(2-(3-ethyl-3-fluoroazetidin-1-yl)-2-oxoethyl)thieno[3,2-c]pyridin-4(5H)-one] | 74
10 | O=C(Cn1cc(-c2ccncc2)c2scc(-c3ccc(F)c(C(F)(F)F)c3)c2c1=O)N1CCCC1 [Example 105, 3-(4-fluoro-3-(trifluoromethyl)phenyl)-5-(2-oxo-2-(pyrrolidin-1-yl)ethyl)-7-(pyridin-4-yl)thieno[3,2-c]pyridin-4(5H)-one] | 22
11 | N#Cc1ncc(-c2csc3ccn(CC(=O)N4CC(F)(CF)C4)c(=O)c23)cc1Cl [Example 138, 3-chloro-5-(5-(2-(3-fluoro-3-(fluoromethyl)azetidin-1-yl)-2-oxoethyl)-4-oxo-4,5-dihydrothieno[3,2-c]pyridin-3-yl)picolinonitrile] | 10
12 | Cn1cc(-c2ccc(Cl)cc2)c2c(=O)n(CC(=O)N3CC(F)(F)C3)cnc21 [Example 155, 5-(4-chlorophenyl)-3-(2-(3,3-difluoroazetidin-1-yl)-2-oxoethyl)-7-methyl-3H-pyrrolo[2,3-d]pyrimidin-4(7H)-one] | 24
13 | O=C(Cn1ccc2scc(-c3ccc(Cl)c(Cl)c3)c2c1=O)N1CC2(CC2)C1 [Example 78, 3-(3,4-dichlorophenyl)-5-(2-oxo-2-(5-azaspiro[2.3]hexan-5-yl)ethyl)thieno[3,2-c]pyridin-4(5H)-one] | 53
14 | CC1(F)CN(C(=O)Cn2ccc3scc(-c4ccc(Cl)c(Cl)c4)c3c2=O)C1 [Example 42, 3-(3,4-dichlorophenyl)-5-(2-(3-fluoro-3-methylazetidin-1-yl)-2-oxoethyl)thieno[3,2-c]pyridin-4(5H)-one] | 150
15 | O=C(Cn1ccn2ncc(-c3ccc(F)c(C(F)(F)F)c3)c2c1=O)N1CCC(F)C1 (stereo not drawn) [Example 321, 3-(4-fluoro-3-(trifluoromethyl)phenyl)-5-(2-(3-fluoropyrrolidin-1-yl)-2-oxoethyl)pyrazolo[1,5-a]pyrazin-4(5H)-one] | 46
16 | O=C(Cn1cnc2csc(-c3ccc(Cl)c(F)c3)c2c1=O)N1CC(F)(F)C1 [Example 363, 5-(4-chloro-3-fluorophenyl)-3-(2-(3,3-difluoroazetidin-1-yl)-2-oxoethyl)thieno[3,4-d]pyrimidin-4(3H)-one] | 16
17 | CC1(O)CN(C(=O)Cn2ccc3scc(-c4ccc(Cl)c(Cl)c4)c3c2=O)C1 [Example 61, 3-(3,4-dichlorophenyl)-5-(2-(3-hydroxy-3-methylazetidin-1-yl)-2-oxoethyl)thieno[3,2-c]pyridin-4(5H)-one] | 16
18 | O=C(Cn1cnc2ccn(-c3ccc(Cl)cc3)c2c1=O)N1CCC(F)(F)CC1 [Example 373, 5-(4-chlorophenyl)-3-(2-(4,4-difluoropiperidin-1-yl)-2-oxoethyl)-3H-pyrrolo[3,2-d]pyrimidin-4(5H)-one] | 3
19 | O=C(Cn1cnc2[nH]cc(-c3ccc(Cl)c(C(F)(F)F)c3)c2c1=O)N1CCC(F)C1 (stereo not drawn) [Example 177, 5-(4-chloro-3-(trifluoromethyl)phenyl)-3-(2-(3-fluoropyrrolidin-1-yl)-2-oxoethyl)-3H-pyrrolo[2,3-d]pyrimidin-4(7H)-one] | 85

More lines, now with the values ahead:

Row | Response Recovered (%) | SMILES
20 | 140 | CC1(F)CN(C(=O)Cn2ccc3scc(-c4ccc(F)c(Cl)c4)c3c2=O)C1 [Example 39, 3-(3-chloro-4-fluorophenyl)-5-(2-(3-fluoro-3-methylazetidin-1-yl)-2-oxoethyl)thieno[3,2-c]pyridin-4(5H)-one]
21 | 70 | CN(C)Cc1cn(CC(=O)N2CCC(F)C2)c(=O)c2c(-c3ccc(Cl)c(Cl)c3)csc12 (stereo not drawn) [Example 123, 3-(3,4-dichlorophenyl)-7-((dimethylamino)methyl)-5-(2-(3-fluoropyrrolidin-1-yl)-2-oxoethyl)thieno[3,2-c]pyridin-4(5H)-one]
22 | 120 | CC1(F)CN(C(=O)Cn2ccc3scc(-c4ccc(Cl)c(C(F)(F)F)c4)c3c2=O)C1 [Example 21, 3-(4-chloro-3-(trifluoromethyl)phenyl)-5-(2-(3-fluoro-3-methylazetidin-1-yl)-2-oxoethyl)thieno[3,2-c]pyridin-4(5H)-one]
23 | 46 | O=C(Cn1ccc2scc(-c3ccc(F)c(Cl)c3)c2c1=O)N1CC2(CC2)C1 [Example 71, 3-(3-chloro-4-fluorophenyl)-5-(2-oxo-2-(5-azaspiro[2.3]hexan-5-yl)ethyl)thieno[3,2-c]pyridin-4(5H)-one]
24 | 4 | O=C(Cn1cnc2ccn(-c3ccc(Cl)cc3)c2c1=O)N1CC(F)(F)C1 [Example 374, 5-(4-chlorophenyl)-3-(2-(3,3-difluoroazetidin-1-yl)-2-oxoethyl)-3H-pyrrolo[3,2-d]pyrimidin-4(5H)-one]
25 | 21 | O=C(Cn1cnc2c(c(-c3ccc(F)c(Cl)c3)cn2CCO)c1=O)N1CCCC1 [Example 195, 5-(3-chloro-4-fluorophenyl)-7-(2-hydroxyethyl)-3-(2-oxo-2-(pyrrolidin-1-yl)ethyl)-3H-pyrrolo[2,3-d]pyrimidin-4(7H)-one]
26 | 51 | O=C(Cn1ccn2ncc(-c3ccc(F)c(C(F)(F)F)c3)c2c1=O)N1CC(F)(F)C1 [Example 324, 5-(2-(3,3-difluoroazetidin-1-yl)-2-oxoethyl)-3-(4-fluoro-3-(trifluoromethyl)phenyl)pyrazolo[1,5-a]pyrazin-4(5H)-one]
27 | 11 | O=C(Cn1cnc2csc(-c3ccc(C(F)(F)F)cc3)c2c1=O)N1CCCC1 [Example 356, 3-(2-oxo-2-(pyrrolidin-1-yl)ethyl)-5-(4-(trifluoromethyl)phenyl)thieno[3,4-d]pyrimidin-4(3H)-one]
28 | 3 | O=C(Cn1cnc2ccn(-c3ccc(Cl)cc3)c2c1=O)N1CCCC1 [Example 376, 5-(4-chlorophenyl)-3-(2-oxo-2-(pyrrolidin-1-yl)ethyl)-3H-pyrrolo[3,2-d]pyrimidin-4(5H)-one]
29 | 42 | O=C(Cn1ccc2[nH]cc(-c3ccc(Cl)c(C(F)(F)F)c3)c2c1=O)N1CCC(F)C1 (stereo not drawn) [Example 203, 3-(4-chloro-3-(trifluoromethyl)phenyl)-5-(2-(3-fluoropyrrolidin-1-yl)-2-oxoethyl)-1H-pyrrolo[3,2-c]pyridin-4(5H)-one]
30 | 85 | O=C(Cn1ccc2c(c(-c3ccc(Cl)c(Cl)c3)cn2C2CC2)c1=O)N1CCC(F)C1 (stereo not drawn) [Example 233, 1-cyclopropyl-3-(3,4-dichlorophenyl)-5-(2-(3-fluoropyrrolidin-1-yl)-2-oxoethyl)-1H-pyrrolo[3,2-c]pyridin-4(5H)-one]
31 | 26 | O=C(Cn1ccc2[nH]cc(-c3cnc(Cl)c(Cl)c3)c2c1=O)N1CC(F)C(F)C1 (stereo not drawn) [Example 210, 3-(5,6-dichloropyridin-3-yl)-5-(2-(3,4-difluoropyrrolidin-1-yl)-2-oxoethyl)-1H-pyrrolo[3,2-c]pyridin-4(5H)-one]
32 | 9.9 | CC(C)(O)c1cn(CC(=O)N2CCC(F)C2)c(=O)c2c(-c3ccc(F)c(C(F)(F)F)c3)csc12 (stereo not drawn) [Example 133, 3-(4-fluoro-3-(trifluoromethyl)phenyl)-5-(2-(3-fluoropyrrolidin-1-yl)-2-oxoethyl)-7-(2-hydroxypropan-2-yl)thieno[3,2-c]pyridin-4(5H)-one]
33 | 37 | O=C(Cn1ccc2cccc(-c3ccc(Cl)c(C(F)(F)F)c3)c2c1=O)N1CCCC1 [Example 300, 8-(4-chloro-3-(trifluoromethyl)phenyl)-2-(2-oxo-2-(pyrrolidin-1-yl)ethyl)isoquinolin-1(2H)-one]
